The results in this text go back to BindingDB's records for patent US10479784 (VERTEX PHARMACEUTICALS INCORPORATED, 2019).

Broadly, the Ki is a dissociation constant, usually derived from enzyme kinetics or from competition with a known ligand. Read a high Ki as a looser hold on the target.

Molecules are shown by their SMILES.

For this test, the target named is Serine/threonine-protein kinase ATR (Homo sapiens, UniProt Q13535). Briefly: Inhibition Assay. Here is the method: Compounds were screened for their ability to inhibit ATR kinase using a radioactive-phosphate incorporation assay. Assays were carried out in a mixture of 50 mM Tris/HCl (pH 7.5), 10 mM MgCl2 and 1 mM DTT. Final substrate concentrations were […] (3mCi 33P ATP/mmol ATP, Perkin Elmer) and 800 μM target peptide ([…]).Assays were carried out at 25° C. in the presence of 5 nM full-length ATR. An assay stock buffer solution was prepared containing all of the reagents listed above, with the exception of ATP and the test compound of interest. […] The plate was pre-incubated for 10 minutes at 25° C. and the reaction initiated by addition of 15 μL [γ-33P]ATP (final concentration 10 μM).The reaction was stopped after […] by the addition of 30 μL 0.1M phosphoric acid containing 2 mM ATP. A multiscreen phosphocellulose filter 96-well plate (Millipore, Cat no. MAPHN0B50) was pretreated with 100 μL 0.2M phosphoric acid prior to the addition of 45 μL of the stopped assay mixture.
Chain of Serine/threonine-protein kinase ATR (Q13535 whole entry): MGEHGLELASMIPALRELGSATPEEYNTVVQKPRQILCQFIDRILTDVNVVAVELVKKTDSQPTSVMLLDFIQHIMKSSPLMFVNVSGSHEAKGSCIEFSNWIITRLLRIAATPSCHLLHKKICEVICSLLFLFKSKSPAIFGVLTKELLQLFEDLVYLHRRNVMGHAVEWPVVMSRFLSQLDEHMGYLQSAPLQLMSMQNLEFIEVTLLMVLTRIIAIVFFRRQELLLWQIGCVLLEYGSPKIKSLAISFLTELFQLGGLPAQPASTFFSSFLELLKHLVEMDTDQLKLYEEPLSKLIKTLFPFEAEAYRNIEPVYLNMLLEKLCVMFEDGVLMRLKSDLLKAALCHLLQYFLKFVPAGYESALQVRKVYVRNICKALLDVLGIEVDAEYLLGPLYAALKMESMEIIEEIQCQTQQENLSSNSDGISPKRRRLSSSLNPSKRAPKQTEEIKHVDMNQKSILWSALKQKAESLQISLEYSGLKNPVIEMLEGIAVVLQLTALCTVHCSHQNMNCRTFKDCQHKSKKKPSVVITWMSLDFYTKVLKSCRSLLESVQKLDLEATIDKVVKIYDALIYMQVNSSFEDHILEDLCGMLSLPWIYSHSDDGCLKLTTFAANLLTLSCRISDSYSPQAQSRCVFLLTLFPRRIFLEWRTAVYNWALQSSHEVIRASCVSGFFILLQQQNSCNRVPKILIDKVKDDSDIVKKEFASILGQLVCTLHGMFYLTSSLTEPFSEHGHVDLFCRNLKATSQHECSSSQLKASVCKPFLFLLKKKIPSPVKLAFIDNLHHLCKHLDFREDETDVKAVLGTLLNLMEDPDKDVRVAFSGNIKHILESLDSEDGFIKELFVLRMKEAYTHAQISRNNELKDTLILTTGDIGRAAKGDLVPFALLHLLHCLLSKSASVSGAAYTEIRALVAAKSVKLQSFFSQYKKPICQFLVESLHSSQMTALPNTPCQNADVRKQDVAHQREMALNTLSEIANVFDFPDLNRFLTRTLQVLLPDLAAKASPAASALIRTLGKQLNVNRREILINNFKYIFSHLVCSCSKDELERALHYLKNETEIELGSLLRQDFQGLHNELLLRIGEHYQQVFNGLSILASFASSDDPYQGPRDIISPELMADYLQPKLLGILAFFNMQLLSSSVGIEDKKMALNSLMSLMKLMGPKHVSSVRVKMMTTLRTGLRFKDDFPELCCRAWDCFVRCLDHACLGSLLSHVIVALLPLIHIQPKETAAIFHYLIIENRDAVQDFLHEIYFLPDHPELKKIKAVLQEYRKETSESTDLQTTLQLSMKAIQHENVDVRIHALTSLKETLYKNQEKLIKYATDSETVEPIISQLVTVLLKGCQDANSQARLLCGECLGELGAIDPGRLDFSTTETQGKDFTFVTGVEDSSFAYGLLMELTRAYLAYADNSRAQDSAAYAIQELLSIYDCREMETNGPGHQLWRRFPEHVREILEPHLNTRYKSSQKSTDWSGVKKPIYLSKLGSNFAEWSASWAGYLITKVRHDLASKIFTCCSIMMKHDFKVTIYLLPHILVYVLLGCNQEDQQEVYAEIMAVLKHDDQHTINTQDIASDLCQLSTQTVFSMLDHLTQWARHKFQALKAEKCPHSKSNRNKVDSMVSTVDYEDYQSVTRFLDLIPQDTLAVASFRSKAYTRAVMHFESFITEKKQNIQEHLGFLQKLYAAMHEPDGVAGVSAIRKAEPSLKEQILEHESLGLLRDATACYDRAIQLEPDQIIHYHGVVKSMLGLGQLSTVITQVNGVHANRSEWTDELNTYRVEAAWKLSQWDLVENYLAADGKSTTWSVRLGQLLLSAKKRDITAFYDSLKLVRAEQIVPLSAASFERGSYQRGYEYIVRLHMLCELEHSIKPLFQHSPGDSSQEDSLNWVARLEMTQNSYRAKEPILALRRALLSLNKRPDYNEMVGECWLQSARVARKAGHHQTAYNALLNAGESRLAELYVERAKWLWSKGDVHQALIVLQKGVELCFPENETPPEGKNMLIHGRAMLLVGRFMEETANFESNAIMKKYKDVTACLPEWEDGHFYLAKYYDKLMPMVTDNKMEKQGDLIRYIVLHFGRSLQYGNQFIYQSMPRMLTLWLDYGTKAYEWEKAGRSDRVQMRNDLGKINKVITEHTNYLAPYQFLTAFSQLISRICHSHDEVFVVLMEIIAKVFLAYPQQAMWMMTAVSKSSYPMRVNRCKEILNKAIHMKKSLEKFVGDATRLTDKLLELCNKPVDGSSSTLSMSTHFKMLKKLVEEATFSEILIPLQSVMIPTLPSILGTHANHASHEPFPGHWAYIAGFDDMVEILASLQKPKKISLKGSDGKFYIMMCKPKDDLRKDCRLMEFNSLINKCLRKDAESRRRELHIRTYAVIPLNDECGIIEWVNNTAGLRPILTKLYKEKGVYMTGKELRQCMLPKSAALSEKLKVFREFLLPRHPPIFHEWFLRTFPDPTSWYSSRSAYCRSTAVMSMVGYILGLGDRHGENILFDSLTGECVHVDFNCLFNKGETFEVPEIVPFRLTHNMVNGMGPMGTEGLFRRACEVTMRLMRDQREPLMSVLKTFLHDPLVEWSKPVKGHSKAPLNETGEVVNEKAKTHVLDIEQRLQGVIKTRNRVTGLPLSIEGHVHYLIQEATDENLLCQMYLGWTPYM

`CNCc1ccc(C(=N)OC(=N)c2nc(-c3ccc(S(=O)(=O)C(C)C)c(OC(F)(F)F)c3)cnc2N)cc1` [US10479784, Compound IA-290] yielded a Ki of less than 0.01 µM.
Compound `CNCc1ccc(C(=N)OC(=N)c2nc(-c3ccc([S+]([O-])C(C)CCOC)cc3)cnc2N)c(F)c1` (configuration not stated) [US10479784, Compound IA-332] showed a Ki of less than 0.01 µM.
